Laboratory results: patent US20080063628A1, “METHODS TO PROMOTE CELL DIFFERENTIATION” (priority 2006, published 2008)

Tested on: amniotic fluid-derived cell line
Assay: Two sequential low dose trichostatin A treatments, gene expression by RT-PCR (Example 7)
Format: cell-based, human
Details: for Gata1 gene expression / HNF (HNF-3 beta) gene expression / Insulin gene expression / Pdx-1 gene expression / sox17 gene expression: 500 nM 0-24 h + 96-120 h
Description: Several cell lines obtained from different amniotic fluid specimens (see Example 14) and pancreas donors (see Example 13) were tested with similar results. Two lines at similar passage number but derived from different amniotic fluid specimens are shown in Table VII-A and Table VII-B for this example. One of these cell lines was also used in examples 2 and 4 above. In addition, this example also contains comparison data in Table VII-C and Table VII-D for a single pancreatic-derived stromal line grown to early and late passage number.
Amniotic fluid derived cells or pancreatic-derived stromal cells were seeded into 24-well tissue culture plates at a density of 5000/cm^2 and cultured in AMNIOMAX (Invitrogen) or DMEM with 10% FBS respectively under standard cell culture conditions until confluent. After the cells reached confluency, amniotic fluid derived cells were treated at time 0 hours with a dose of 500 nM trichostatin A, and pancreatic-derived stromal cells were treated with a dose of 1.25 μM trichostatin A solubilized in DMSO and medium. At time 24 hours, cell cultures underwent a complete medium change to remove all traces of trichostatin A. At time 96 hours, cell cultures were re-fed with fresh medium and received a second dose of trichostatin A at the same concentration as used previously. At time 120 hours, cell cultures again underwent a complete medium change and were cultured for an additional 24 hours or […] total incubation time.
Samples were taken daily for RT-PCR at the times indicated in Table VII-A to D. The culture medium was removed, and samples were rinsed in PBS then collected in RLT with β-mercaptoethanol (Qiagen). RNA was purified using the RNeasy Mini Kit (Qiagen) and RNA quantity and quality were determined using a spectrophotometer. cDNA was made using the iScript cDNA synthesis kit (BioRad).
Samples of 20 ng cDNA were used in each reaction to determine the expression levels of the following genes in amniotic fluid-derived cells: Gata1, HNF-3 beta, Pdx-1, insulin, and Sox17. Similarly, samples of 20 ng cDNA were used in each reaction to determine the expression level of the following genes in pancreatic-derived cells: glucagon, HNF-3 beta, insulin and Pdx-1. Real-Time PCR was performed on the Applied Biosystems 7500, and data was analyzed using the accompanying software according to the methods described in Example 15.
Real-time PCR amplifcation and quantitative analysis. Unless otherwise stated, all reagents were purchased from Applied Biosystems. Real-time PCR reactions were performed using the ABI PRISM™ 7500 Sequence Detection System. TAQMAN™ FAST UNIVERSAL PCR MASTER MIX™ (ABI, CA) was used with 20 ng of reverse transcribed RNA in a total reaction volume of 20 μl. Each cDNA sample was run in duplicate to allow correction of pipetting errors. Primers and FAM-labeled TAQMAN™ probes were used at concentrations of 200 nM. The level of expression for each target gene was normalized using the pre-developed Applied Biosystem's human glyceraldehyde-3-phosphate dehydrogenase (GAPDH) endogenous control kit. Primers and probes were designed using either ABI PRISM PRIMER EXPRESS™ software or a pre-developed ABI gene analysis kit. For each gene, either one of the primers or the probe were designed to be exon-boundary spanning. This eliminated the possibility of the primers/probe binding to any genomic DNA present. The primer and probe sets are listed as follows: Pdx-1 (Hs00426216), Insulin (Hs00355773), glucagon (Hs00174967), and FoxA2 (HNF 3-beta) (Hs00232764). The remaining primers were designed using the PRIMERS program (ABI, CA). After an initial 95° C. incubation for 20 sec, samples were cycled 40 times in two stages: a denaturation step at 95° C. for 3 sec, followed by an annealing/extension step at 60° C. for 30 sec. […]

With `CC(/C=C/C(=O)NO)=C\[C@@H](C)C(=O)c1ccc(N(C)C)cc1` [trichostatin A] as the molecule, how does the “Insulin RT-PCR detection cycle” value (0.5 μM, by 48 hours (after removal at 24 h)) read?
The value was 36 cycles.

And the “HNF-3 beta RT-PCR detection cycle” value (0.5 μM, following the first treatment)?
The value was 33 cycles.

What about the “HNF-3 beta RT-PCR detection cycle” value (0.5 μM, following the second treatment) of the same molecule?
Its value is 37 cycles.

What about the “Pdx-1 RT-PCR detection cycle” value (0.5 μM, for 24 hours following the addition) of the same molecule?
The value was 37 cycles.

And the Gata1 gene expression (24 hrs)?
The Gata1 gene expression was “nd (not detectable at >40 cycles by RT-PCR)”.

And the “HNF (HNF-3 beta) gene expression” value (24 hrs)?
Its value is “+++ (detectable at less than 35 cycles by RT-PCR with SE less than 0.9)”.

And the Insulin gene expression (24 hrs)?
Its Insulin gene expression is “nd (not detectable at >40 cycles by RT-PCR)”.

And the Pdx-1 gene expression (24 hrs)?
The Pdx-1 gene expression was “+ (detectable between 35 and 40 cycles by RT-PCR)”.

And the sox17 gene expression (24 hrs)?
The sox17 gene expression was “+++ (detectable at less than 35 cycles by RT-PCR with SE less than 0.9)”.

And the Gata1 gene expression (48 hrs)?
The Gata1 gene expression was “nd (not detectable at >40 cycles by RT-PCR)”.

And the “HNF (HNF-3 beta) gene expression” value (48 hrs)?
Its value is “+++ (detectable at less than 35 cycles by RT-PCR with SE less than 0.9)”.

What about the Insulin gene expression (48 hrs) of the same molecule?
Its Insulin gene expression is “+ (detectable between 35 and 40 cycles by RT-PCR)”.

What about the Pdx-1 gene expression (48 hrs) of the same molecule?
Its Pdx-1 gene expression is “nd (not detectable at >40 cycles by RT-PCR)”.

What about the sox17 gene expression (48 hrs) of the same molecule?
Its sox17 gene expression is “+++ (detectable at less than 35 cycles by RT-PCR with SE less than 0.9)”.

What about the Gata1 gene expression (72 hrs) of the same molecule?
Its Gata1 gene expression is “nd (not detectable at >40 cycles by RT-PCR)”.

And the “HNF (HNF-3 beta) gene expression” value (72 hrs)?
The value was “+ (detectable between 35 and 40 cycles by RT-PCR)”.

What about the Insulin gene expression (72 hrs) of the same molecule?
Its Insulin gene expression is “+ (detectable between 35 and 40 cycles by RT-PCR)”.

What about the Pdx-1 gene expression (72 hrs) of the same molecule?
Its Pdx-1 gene expression is “nd (not detectable at >40 cycles by RT-PCR)”.

And the sox17 gene expression (72 hrs)?
The sox17 gene expression was “+++ (detectable at less than 35 cycles by RT-PCR with SE less than 0.9)”.

What about the Gata1 gene expression (96 hrs) of the same molecule?
The Gata1 gene expression was “nd (not detectable at >40 cycles by RT-PCR)”.

And the “HNF (HNF-3 beta) gene expression” value (96 hrs)?
The value was “nd (not detectable at >40 cycles by RT-PCR)”.

And the Insulin gene expression (96 hrs)?
The Insulin gene expression was “+ (detectable between 35 and 40 cycles by RT-PCR)”.

What about the Pdx-1 gene expression (96 hrs) of the same molecule?
Its Pdx-1 gene expression is “nd (not detectable at >40 cycles by RT-PCR)”.

What about the sox17 gene expression (96 hrs) of the same molecule?
The sox17 gene expression was “+++ (detectable at less than 35 cycles by RT-PCR with SE less than 0.9)”.

And the Gata1 gene expression (120 hrs)?
Its Gata1 gene expression is “nd (not detectable at >40 cycles by RT-PCR)”.

And the “HNF (HNF-3 beta) gene expression” value (120 hrs)?
Its value is “+ (detectable between 35 and 40 cycles by RT-PCR)”.

What about the Insulin gene expression (120 hrs) of the same molecule?
The Insulin gene expression was “+ (detectable between 35 and 40 cycles by RT-PCR)”.

And the Pdx-1 gene expression (120 hrs)?
Its Pdx-1 gene expression is “nd (not detectable at >40 cycles by RT-PCR)”.

What about the sox17 gene expression (120 hrs) of the same molecule?
The sox17 gene expression was “+++ (detectable at less than 35 cycles by RT-PCR with SE less than 0.9)”.

And the Gata1 gene expression (144 hrs)?
Its Gata1 gene expression is “nd (not detectable at >40 cycles by RT-PCR)”.

What about the “HNF (HNF-3 beta) gene expression” value (144 hrs) of the same molecule?
Its value is “+ (detectable between 35 and 40 cycles by RT-PCR)”.

What about the Insulin gene expression (144 hrs) of the same molecule?
The Insulin gene expression was “+ (detectable between 35 and 40 cycles by RT-PCR)”.

What about the Pdx-1 gene expression (144 hrs) of the same molecule?
The Pdx-1 gene expression was “nd (not detectable at >40 cycles by RT-PCR)”.

And the sox17 gene expression (144 hrs)?
The sox17 gene expression was “+++ (detectable at less than 35 cycles by RT-PCR with SE less than 0.9)”.
